Patent publication US20260137788A1, “INFLAMMATION STIMULI RESPONSIVE PEPTIDE BRUSH POLYMERS” (NORTHWESTERN UNIVERSITY, priority 2021, published 2026)
Ends that are not written are not given here.

Experiments:
[1] = system: Sprague Dawley rats, IR MI; experiment: Efficacy on LV function by MRI; type: in vivo, rat; conditions: tail-vein injection 1-day post-MI, MRI 3 days and 5 weeks post-injection
Protocol: Methods 5.1: Assessing Efficacy of L-PLPMMPi on LV Function. Male and female Sprague Dawley rats undergo IR procedures as previously described in Example 2. Prior to surgery, all animals undergo magnetic resonance imaging (MRI) to establish a baseline for LV ejection fraction (EF), wall thickness, end diastolic volume (EDV), and end systolic volume (ESV). […] MRI is performed at 3 days and 5 weeks (n=7 per sex for saline, MMPi, L-PLP, and L-PLPMMPi treated animals with randomized groups for each harvest timepoint) post-injection to assess cardiac function via LV EF, wall thickness, EDV, and ESV. For power analysis, an a value of 0.05 and a power of 0.8 was used to determine experimental sample sizes with additional rats based on an expected 30% mortality from surgical procedures. A 2-way ANOVA with post-hoc Tukey Test is then performed with significance at α=0.05.

[2] = Dynamic Light Scattering (DLS) average diameter; type: physicochemical; conditions: in PBS
Protocol: (§1) Characterization Results: The molar mass of both unlabeled and labeled AAK20 PLPs were analyzed by SDS PAGE using a polyacrylamide gel with a pore gradient of 4-15% (cat #: 4561083) and Precision Plus Kaleidoscope Protein Standard (cat #: 1610395). The mass of both AAK20 and Cy5.5-AAK20 samples were ˜20 kDa and found to correspond with the average molecular weight of an AAK PLP with a DP of 20 (FIG. 9A). […] The diffusion rate of AAK20 in deuterated water was analyzed by Diffusion Ordered Spectroscopy (DOSY) NMR. […] Additional physical characterization of AAK20 by dry state Transmission Electron Microscopy (TEM) was performed to provide complementary data to SDS PAGE, DLS, and DOSY NMR.

[3] = Diffusion Ordered Spectroscopy (DOSY) NMR diffusion rate; type: physicochemical; conditions: in deuterated water
Protocol: ^1H Nuclear Magnetic Resonance (^1H NMR): ^1H NMR data was recorded on either a Bruker Avance III HD 500 MHz spectrometer, a Bruker Avance III 600 MHz spectrometer, or a Bruker Neo 600 MHz spectrometer. The 500 MHz spectrometer was primarily used for small molecule characterization, the Bruker Avance III 600 MHz spectrometer was used for polymerization kinetics studies, and the Bruker Neo 600 MHz spectrometer was used for diffusion ordered spectroscopy (DOSY) studies done on PLPs in deuterated buffered saline. ^1H NMR chemical shifts are given in reference to residual proton peaks from either the DMSO-d6 or the DMF-d7 solvent.
as §1

[4] = Dry state Transmission Electron Microscopy (TEM); type: physicochemical
Protocol: as §1

Compound	LV ejection fraction (EF), pre- vs post-MI (MRI) [1]	end diastolic volume (EDV), pre- vs post-MI (MRI) [1]	end systolic volume (ESV), pre- vs post-MI (MRI) [1]	wall thickness, pre- vs post-MI (MRI) [1]	average diameter by DLS [2]	diffusion rate by DOSY NMR [3]	morphology by dry state TEM [4]
CC(C)[C@H](NS(=O)(=O)c1ccc(-c2ccc(Br)cc2)cc1)C(=O)O [MMPi, PD166793]	decreased	increased	increased	negligible differences			
AAK20: PLP made by ROMP of norbornene AAK monomer (SEQ ID NO: 142, AAKAAKAA) at 20 molar equivalence to Grubbs catalyst; unlabeled (AAKAAKAA-NH2; also: norbornene monomer polymerized by ROMP into PLP)					< 10 nm	approximately 1×10^−6 cm^2/s	nanoscale globular assemblies
